{
  "source": "patent US20220387362A1",
  "about": "“COMPOSITIONS COMPRISING A DHODH INHIBITOR FOR THE TREATMENT OF ACUTE MYELOID LEUKEMIA” (RHIZEN PHARMACEUTICALS AG, priority 2019, published 2022)",
  "key": {"AML cell line U937": {"test_system": "AML cell line U937", "test": "Anti-proliferative effect in combination with gilteritinib (MTT assay)", "type": "cell-based", "method": "(§1) Compound A (at 3 μM) and gilteritinib (1.5 μM) was tested in AML cell line U937. Cells were plated in 96-well plates and incubated with desired concentrations of Compound A for 72 h. At the end of the incubation period, MTT ((3-(4,5-dimethylthiazol-2-yl)-2,5-diphenyltetrazolium bromide)) was added. The plates were placed on a shaker for 5 min to mix the formazan and the optical density at 560 nm was measured on a spectrophotometer. Data were plotted using Graphpad prism for calculation of the percentage inhibition to determine the effect of Compound A as a single agent or in combination with gilteritinib."}, "MV411 xenograft": {"test_system": "MV411 xenograft", "test": "MV411 mouse xenograft model", "type": "in vivo", "method": "The effect of Compound A was determined in a MV411 mouse xenograft model. Briefly, 5×10^6 cells were injected into the right flank region by Subcutaneous administration under sterile condition. The oral administration of Compound (A) at 30 mg/kg/BID for 21 days. The tumors were measured using a calliper in two dimensions, length (a) and width (b). Tumor volumes were estimated from measurements of the two diameters of the individual tumors as follows: Tumor Volume (mm3)=(a×b2)/2. At the end of the study period, animals were sacrificed and the tumors harvested."}, "THP-1 [1]": {"test_system": "THP-1", "test": "Anti-proliferative effect with uridine rescue (MTT assay)", "type": "cell-based", "settings": "Homo sapiens, 72 h", "method": "(§2) Compound A was tested in the absence of Uridine (U937, HL-60, THP-1 and MV411 cell lines) or in the presence of Uridine (100 μM for U937, HL-60 and MV411 and 300 μM for THP-1). Cells were plated in 96-well plates and incubated with desired concentrations of Compound A for 72 h. At the end of the incubation period, MTT ((3-(4,5-dimethylthiazol-2-yl)-2,5-diphenyltetrazolium bromide)) was added. The plates were placed on a shaker for 5 min to mix the formazan and the optical density at 560 nm was measured on a spectrophotometer. Data were plotted using Graphpad prism for calculation of the GI50 concentrations."}, "MV411 [2]": {"test_system": "MV411", "test": "Anti-proliferative effect with uridine rescue (MTT assay)", "type": "cell-based", "settings": "Homo sapiens, MV4-11, 72 h", "method": "as §2"}, "U937 [3]": {"test_system": "U937", "test": "Anti-proliferative effect with uridine rescue (MTT assay)", "type": "cell-based", "settings": "Homo sapiens, U-937, 72 h", "method": "as §2"}, "HL-60": {"test_system": "HL-60", "test": "Anti-proliferative effect with uridine rescue (MTT assay)", "type": "cell-based", "settings": "Homo sapiens, 72 h", "method": "as §2"}, "[4]": {"test_system": "AML cell lines (U937, HL-60, THP-1 and MV411)", "test": "Anti-proliferative effect with uridine rescue, AML cell lines together (MTT assay)", "type": "cell-based", "method": "as §2"}, "[5]": {"test_system": "CD11b mRNA expression in THP-1", "test": "CD11b mRNA expression in THP-1 cell lines (Real-Time PCR)", "type": "cell-based", "settings": "THP-1, 3 μM, 72 hours", "method": "THP-1 cells were plated in complete media at pre-determined density in 6-well plates and the cells were treated with Compound A for 72 hours. mRNA was isolated using TRI reagent according to the manufacturer's protocol (TRI Reagent from Sigma). cDNA was synthesized using cDNA Synthesis kit according to manufacturer's protocol (First Strand cDNA Synthesis kit) and Real-Time PCR was performed. Data was calculated using delta delta Ct method. Fold change in mRNA expression was plotted using GraphPad Prism (Version 5.02)"}, "THP-1 [6]": {"test_system": "THP-1", "test": "Anti-proliferative effect in AML cell lines (MTT assay)", "type": "cell-based", "settings": "Homo sapiens, THP-1, 72 h", "method": "as §2, with “across a panel” for “in the absence”, “AML cell lines” for “Uridine”, “THP-1, KG-1” for “THP-1”, “MV411).” for “MV411 cell lines) or in the presence of Uridine (100 μM for U937, HL-60 and MV411 and 300 μM for THP-1).”, “hours (h).” for “h.”"}, "HL60": {"test_system": "HL60", "test": "Anti-proliferative effect in AML cell lines (MTT assay)", "type": "cell-based", "settings": "Homo sapiens, HL-60, HL60, 72 h", "method": "as §2, with “across a panel” for “in the absence”, “AML cell lines” for “Uridine”, “THP-1, KG-1” for “THP-1”, “MV411).” for “MV411 cell lines) or in the presence of Uridine (100 μM for U937, HL-60 and MV411 and 300 μM for THP-1).”, “hours (h).” for “h.”"}, "MV411 [7]": {"test_system": "MV411", "test": "Anti-proliferative effect in AML cell lines (MTT assay)", "type": "cell-based", "settings": "Homo sapiens, MV4-11, MV411, 72 h", "method": "as §2, with “across a panel” for “in the absence”, “AML cell lines” for “Uridine”, “THP-1, KG-1” for “THP-1”, “MV411).” for “MV411 cell lines) or in the presence of Uridine (100 μM for U937, HL-60 and MV411 and 300 μM for THP-1).”, “hours (h).” for “h.”"}, "U937 [8]": {"test_system": "U937", "test": "Anti-proliferative effect in AML cell lines (MTT assay)", "type": "cell-based", "settings": "Homo sapiens, U-937, U937, 72 h", "method": "as §2, with “across a panel” for “in the absence”, “AML cell lines” for “Uridine”, “THP-1, KG-1” for “THP-1”, “MV411).” for “MV411 cell lines) or in the presence of Uridine (100 μM for U937, HL-60 and MV411 and 300 μM for THP-1).”, “hours (h).” for “h.”"}, "KG-1": {"test_system": "KG-1", "test": "Anti-proliferative effect in AML cell lines (MTT assay)", "type": "cell-based", "settings": "Homo sapiens, KG-1, 72 h", "method": "as §2, with “across a panel” for “in the absence”, “AML cell lines” for “Uridine”, “THP-1, KG-1” for “THP-1”, “MV411).” for “MV411 cell lines) or in the presence of Uridine (100 μM for U937, HL-60 and MV411 and 300 μM for THP-1).”, “hours (h).” for “h.”"}, "[9]": {"test_system": "AML cell lines (U937, HL-60, THP-1, KG-1 and MV411)", "test": "Anti-proliferative effect across panel of AML cell lines (MTT assay)", "type": "cell-based", "settings": "U937, HL-60, THP-1, KG-1, MV411; 72 h; read-out: GI50 range over all AML cell lines tested", "method": "as §2, with “across a panel” for “in the absence”, “AML cell lines” for “Uridine”, “THP-1, KG-1” for “THP-1”, “MV411).” for “MV411 cell lines) or in the presence of Uridine (100 μM for U937, HL-60 and MV411 and 300 μM for THP-1).”, “hours (h).” for “h.”"}, "[10]": {"test_system": "CD11b expression in THP-1", "test": "CD11b cell surface expression (flow cytometry)", "type": "cell-based", "settings": "THP-1, 5 μM, 96 hours", "method": "(§3) Cells were plated in complete media at pre-determined density in 6-well plates and the cells were treated with Compound A 96 hours for THP-1 cell lines and 72 hours for MV411 cell lines) in the presence or absence of uridine. The cells were stained with CD11b Antibody PE according to manufacturer's protocol (CD11b Monoclonal Antibody (ICRF44), PE, eBioscience) and the cells were acquired and analysed by flow cytometry (Guava Easycyte)."}, "[11]": {"test_system": "CD11b expression in MV411", "test": "CD11b cell surface expression (flow cytometry)", "type": "cell-based", "settings": "MV411, 3 μM, 72 hours", "method": "as §3"}, "AML cell line THP-1": {"test_system": "AML cell line THP-1", "test": "Anti-proliferative effect in combination with gilteritinib (MTT assay)", "type": "cell-based", "method": "as §1, with “Gilteritinib (0.25” for “gilteritinib (1.5”, “THP-1.” for “U937.”"}, "[12]": {"settings": "in combination with cyclosporine; cited from earlier work"}, "[13]": {"settings": "patients; cited from earlier work"}, "[14]": {"settings": "Homo sapiens, U-937, U937, 72 h, Compound A 3 μM, gilteritinib 1.5 μM, read-out: % inhibition of cell growth"}, "[15]": {"settings": "Homo sapiens, THP-1, 72 h, Compound A 3 μM, Gilteritinib 0.25 μM, read-out: % inhibition of cell growth"}},
  "note": "Read-outs that look alike come from different tables or passages of the source.",
  "data": [
    {"compound": "CCCCOc1cccc(-c2cc(F)c(NC(=O)c3ccccc3C(=O)O)c(Cl)c2)c1", "note": "[Compound A, 2-(3′-butoxy-3-chloro-5-fluorobiphenyl-4-ylcarbamoyl)benzoic acid]", "values": [
      {"measurement": "inhibition at 3 µM", "setting": "AML cell line U937; [14]", "value": 41.4, "unit": "%"},
      {"measurement": "effect on activity of gilteritinib (cell growth inhibition)", "setting": "AML cell line U937; U937, p<0.05", "value": "potentiated"},
      {"measurement": "tumor growth inhibition", "setting": "MV411 xenograft; Compound A 30 mg/kg/BID oral 21 days, combination with cytarabine 20 mg/Kg", "value": 37, "unit": "%"},
      {"measurement": "adverse events or body weight changes", "setting": "MV411 xenograft; throughout the study period, MV411 xenograft mice", "value": "No adverse events or body weight changes were observed"},
      {"measurement": "GI50", "setting": "THP-1 [1]; THP-1, 300 μM uridine", "value": "> 10000", "unit": "nM"},
      {"measurement": "GI50", "setting": "THP-1 [1]; THP-1, absence of uridine", "value": 2000, "unit": "nM"},
      {"measurement": "GI50", "setting": "MV411 [2]; MV411, 100 μM uridine", "value": "> 10000", "unit": "nM"},
      {"measurement": "GI50", "setting": "MV411 [2]; MV411, absence of uridine", "value": 2600, "unit": "nM"},
      {"measurement": "GI50", "setting": "U937 [3]; U937, 100 μM uridine", "value": "> 10", "unit": "µM"},
      {"measurement": "GI50", "setting": "U937 [3]; U937, absence of uridine", "value": 3.2, "unit": "µM"},
      {"measurement": "GI50", "setting": "HL-60; HL-60, 100 μM uridine", "value": "> 10", "unit": "µM"},
      {"measurement": "GI50", "setting": "HL-60; HL-60, absence of uridine", "value": 3.6, "unit": "µM"},
      {"measurement": "GI50", "setting": "[4]; 100 μM or 300 μM uridine, read-out: GI50 over AML cell lines with addition of uridine", "value": "> 10", "unit": "µM"},
      {"measurement": "GI50", "setting": "[4]; U937, HL-60, THP-1, MV411, no uridine, read-out: GI50 range over AML cell lines, without uridine", "value": "2 to 3.2", "unit": "µM"},
      {"measurement": "induction of CD11b gene expression", "setting": "[5]", "value": 80, "unit": "fold"},
      {"measurement": "GI50", "setting": "THP-1 [6]", "value": 2500, "unit": "nM"},
      {"measurement": "GI50", "setting": "HL60", "value": 3.5, "unit": "µM"},
      {"measurement": "GI50", "setting": "MV411 [7]", "value": 2500, "unit": "nM"},
      {"measurement": "GI50", "setting": "U937 [8]", "value": 2400, "unit": "nM"},
      {"measurement": "GI50", "setting": "KG-1", "value": 7.6, "unit": "µM"},
      {"measurement": "GI50", "setting": "[9]", "value": "2.4 to 7.6", "unit": "µM"},
      {"measurement": "melting point", "value": "128 to 130", "unit": "°C"},
      {"measurement": "CD11b cell surface expression after addition of uridine", "setting": "[10]; with uridine", "value": 15, "unit": "%"},
      {"measurement": "CD11b cell surface expression, % of cell population", "setting": "[10]; without uridine", "value": 40, "unit": "%"},
      {"measurement": "CD11b cell surface expression, % of cell population", "setting": "[11]", "value": 35, "unit": "%"},
      {"measurement": "inhibition at 3 µM", "setting": "AML cell line THP-1; [15]", "value": 35.8, "unit": "%"},
      {"measurement": "effect on activity of gilteritinib (cell growth inhibition)", "setting": "AML cell line THP-1; THP-1, p<0.05", "value": "potentiated"}
    ]},
    {"compound": "CCc1nc(C(N)=O)c(Nc2ccc(N3CCC(N4CCN(C)CC4)CC3)c(OC)c2)nc1NC1CCOCC1", "note": "[Gilteritinib, reference compound]", "values": [
      {"measurement": "inhibition at 1.5 µM", "setting": "AML cell line U937; [14]", "value": 41.7, "unit": "%"},
      {"measurement": "inhibition at 0.25 µM", "setting": "AML cell line THP-1; [15]", "value": 40.1, "unit": "%"}
    ]},
    {"compound": "Cc1c(-c2ccc(-c3ccccc3F)cc2)nc2ccc(F)cc2c1C(=O)O", "note": "[brequinar]", "values": [
      {"measurement": "toxic effects on oral administration", "setting": "[12]", "value": "toxic effects, including leukocytopenia and thrombocytopenia"}
    ]},
    {"compound": "Cc1oncc1C(=O)Nc1ccc(C(F)(F)F)cc1", "note": "[leflunomide]", "values": [
      {"measurement": "half-life time", "setting": "[13]", "value": "approximately 2 weeks"}
    ]}
  ]
}
